Data published in patent publication US20180099931A1 (AbbVie S.à.r.l., priority 2016, published 2018).
pEC50: −log10 of the molar value. Like-named read-outs stand apart in the source and are kept apart here.

Target: T1, F508delCFTR (Homo sapiens, UniProt P13569, DEL508-508)
T1 construct: expressed in transfected cells; host or cells: CFBE41o- human lung-derived epithelial cells (CFBE4lo-F508delCFTR-HRP), doxycycline-inducible
Assay: Cell Surface Expression-Horse Radish Peroxidase (CSE-HRP) Assay;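 as to Maximum % activity (with co-corrector): co-corrector and positive control are both the same reference corrector at 2 µM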;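 as to Maximum % activity (without co-corrector): percent of the 2 µM on-plate positive control corrector response above DMSO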
Type: cell-based
Details: for Maximum % activity (with co-corrector) / Emax: maximum at any tested concentration, normalized to on-plate positive control; for Emax: read-out: Maximum % activity (without co-corrector)

[1] = test compound without co-corrector, read-out: EC50 (without co-corrector)
[2] = with co-corrector (2 μM of 3-[(2R,4R)-4-({[1-(2,2-difluoro-1,3-benzodioxol-5-yl)cyclopropyl]carbonyl}amino)-7-methoxy-3,4-dihydro-2H-chromen-2-yl]benzoic acid), read-out: EC50 (with co-corrector)
[3] = CSE-HRP, test compound without co-corrector, read-out: EC50 (without co-corrector)
[4] = CSE-HRP, with co-corrector (2 μM of 3-[(2R,4R)-4-({[1-(2,2-difluoro-1,3-benzodioxol-5-yl)cyclopropyl]carbonyl}amino)-7-methoxy-3,4-dihydro-2H-chromen-2-yl]benzoic acid), read-out: EC50 (with co-corrector)
[5] = CSE-HRP, with co-corrector (2 μM)
[6] = test compound without co-corrector
[7] = with co-corrector (2 μM of 3-[(2R,4R)-4-({[1-(2,2-difluoro-1,3-benzodioxol-5-yl)cyclopropyl]carbonyl}amino)-7-methoxy-3,4-dihydro-2H-chromen-2-yl]benzoic acid)

T1 sequence (P13569 with tags, fused parts or gaps DEL508-508): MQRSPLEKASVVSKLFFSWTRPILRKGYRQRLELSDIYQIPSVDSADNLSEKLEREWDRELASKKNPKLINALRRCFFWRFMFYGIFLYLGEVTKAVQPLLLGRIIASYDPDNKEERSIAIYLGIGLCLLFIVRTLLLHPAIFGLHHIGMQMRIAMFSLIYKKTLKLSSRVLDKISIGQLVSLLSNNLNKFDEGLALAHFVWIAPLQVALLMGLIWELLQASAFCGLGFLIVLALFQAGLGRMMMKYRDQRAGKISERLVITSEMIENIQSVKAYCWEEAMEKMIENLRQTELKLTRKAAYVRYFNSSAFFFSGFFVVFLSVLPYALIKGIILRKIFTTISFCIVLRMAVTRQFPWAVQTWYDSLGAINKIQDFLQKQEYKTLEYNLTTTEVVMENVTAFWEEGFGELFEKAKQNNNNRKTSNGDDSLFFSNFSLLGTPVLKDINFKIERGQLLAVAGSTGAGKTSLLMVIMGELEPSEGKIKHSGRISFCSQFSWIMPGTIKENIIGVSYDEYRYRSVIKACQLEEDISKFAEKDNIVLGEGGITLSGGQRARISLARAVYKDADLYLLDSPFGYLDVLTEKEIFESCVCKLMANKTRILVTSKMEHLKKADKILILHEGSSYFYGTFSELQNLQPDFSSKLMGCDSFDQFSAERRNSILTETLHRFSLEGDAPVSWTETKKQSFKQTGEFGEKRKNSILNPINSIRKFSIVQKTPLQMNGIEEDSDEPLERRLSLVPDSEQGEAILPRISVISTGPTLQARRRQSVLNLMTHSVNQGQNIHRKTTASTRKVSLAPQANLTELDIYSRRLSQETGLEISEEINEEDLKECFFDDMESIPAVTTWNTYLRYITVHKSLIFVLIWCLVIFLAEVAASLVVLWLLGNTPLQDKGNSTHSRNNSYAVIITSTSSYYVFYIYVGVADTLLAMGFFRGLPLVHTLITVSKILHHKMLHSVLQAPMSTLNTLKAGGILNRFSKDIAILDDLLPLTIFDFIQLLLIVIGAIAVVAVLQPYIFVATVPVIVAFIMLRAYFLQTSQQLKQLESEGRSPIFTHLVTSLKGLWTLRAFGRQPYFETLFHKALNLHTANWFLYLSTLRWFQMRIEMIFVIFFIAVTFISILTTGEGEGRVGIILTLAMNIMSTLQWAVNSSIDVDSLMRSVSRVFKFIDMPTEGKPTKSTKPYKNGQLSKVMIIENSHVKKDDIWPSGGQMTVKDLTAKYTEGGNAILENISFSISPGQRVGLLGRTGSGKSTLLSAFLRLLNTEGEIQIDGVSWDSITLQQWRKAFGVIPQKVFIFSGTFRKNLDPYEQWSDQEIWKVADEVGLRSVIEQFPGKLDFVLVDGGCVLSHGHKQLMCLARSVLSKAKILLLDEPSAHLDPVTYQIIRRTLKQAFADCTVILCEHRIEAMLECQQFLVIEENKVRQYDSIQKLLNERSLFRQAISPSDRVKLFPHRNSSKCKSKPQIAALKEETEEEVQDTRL

Row | SMILES | pEC50 [1] | pEC50 [2] | Maximum % activity (with co-corrector) (with co-corrector (2 μM)) | Emax (without co-corrector) [%] | pEC50 [3] | pEC50 [4] | Maximum % activity (with co-corrector) [5] | Emax (CSE-HRP, without co-corrector) [%] | Emax [6] [%] | Maximum % activity (with co-corrector) [7]
1 | COc1ccc(C(C)(C)C)cc1CN[C@H]1[C@H](C(C)(C)C)[C@@H](C(=O)O)N(C(=O)C(OC)c2ccc(F)c(F)c2)[C@H]1c1ccccc1 (relative stereo) [Example I-159] | > 6.00 | > 6.00 | +++ (≥350) | > 200 |  |  |  |  |  | 
2 | COc1ccc(C(C)(C)C)cc1CN[C@H]1[C@H](C(C)(C)C)[C@@H](C(=O)O)N(C(=O)[C@@H]2OCC[C@@H]2c2ccccc2)[C@H]1c1ccccc1 (relative stereo) [Example I-178] | 5.00 to 6.00 | 5.00 to 6.00 | +++ (≥350) | 100 to 200 |  |  |  |  |  | 
3 | COc1ccc(C(C)(C)C)cc1CN[C@H]1[C@H](C(C)(C)C)[C@@H](C(=O)O)N(C(=O)[C@H]2OCC[C@H]2c2ccccc2)[C@H]1c1ccccc1 (relative stereo) [Example I-179] | 5.00 to 6.00 | 5.00 to 6.00 | +++ (≥350) | 100 to 200 |  |  |  |  |  | 
4 | COc1ccc(C(C)(C)C)cc1CN[C@H]1[C@H](C(C)(C)C)[C@@H](C(=O)O)N(C(=O)C2CCCCO2)[C@H]1c1ccccc1 (relative stereo) [Example I-193] | 5.00 to 6.00 | 5.00 to 6.00 | +++ (≥350) | > 200 |  |  |  |  |  | 
5 | COc1ccc(C(C)(C)C)cc1CN[C@H]1[C@H](C(C)(C)C)[C@@H](C(=O)O)N(C(=O)[C@@H](C)[C@@H]2CCCCO2)[C@H]1c1ccccc1 (relative stereo) [Example I-195] | 5.00 to 6.00 | 5.00 to 6.00 | +++ (≥350) | > 200 |  |  |  |  |  | 
6 | COc1ccc(C(C)(C)C)cc1CN[C@H]1[C@H](C(C)(C)C)[C@@H](C(=O)O)N(C(=O)[C@H](C)[C@H]2CCCCO2)[C@H]1c1ccccc1 (relative stereo) [Example I-196] | 5.00 to 6.00 | 5.00 to 6.00 | +++ (≥350) | > 200 |  |  |  |  |  | 
7 | COc1nc(C(C)(C)C)ccc1CN[C@H]1[C@H](C(C)(C)C)[C@@H](C(=O)O)N(C(=O)[C@@H]2CCC[C@H](OC)C2)[C@H]1c1ccccc1 (relative stereo) [Example I-198] | 5.00 to 6.00 | 5.00 to 6.00 | +++ (≥350) | < 100 |  |  |  |  |  | 
8 | COc1ccc(C(C)(C)C)cc1CN[C@H]1[C@H](C(C)(C)C)[C@@H](C(=O)O)N(C(=O)[C@@H]2[C@@H](C(F)(F)F)[C@@H]3CC[C@H]2O3)[C@H]1c1cccnc1N(C)C (relative stereo) [Example I-204] | > 6.00 | > 6.00 | +++ (≥350) | > 200 |  |  |  |  |  | 
9 | COc1ncc(C2CCC2)cc1CN[C@H]1[C@H](C(C)(C)C)[C@@H](C(=O)O)N(C(=O)C2COc3ccccc3O2)[C@H]1c1ccccc1 (relative stereo) [Example I-205] | 5.00 to 6.00 | 5.00 to 6.00 | ++ (≥150 and <350) | < 100 |  |  |  |  |  | 
10 | COc1ccc(C(C)(C)C)cc1CN[C@H]1[C@H](C(C)(C)C)[C@@H](C(=O)O)N(C(=O)[C@H]2[C@H](C(F)(F)F)[C@H]3CC[C@@H]2O3)[C@H]1c1ccccc1OC(F)F (relative stereo) [Example I-223] | 5.00 to 6.00 | > 6.00 | +++ (≥350) | 100 to 200 |  |  |  |  |  | 
11 | COc1ccc(C(C)(C)C)cc1CN[C@H]1[C@H](C(C)(C)C)[C@@H](C(=O)O)N(C(=O)[C@@H]2C[C@H]3CC[C@@H]2O3)[C@H]1c1ccccc1 (relative stereo) [Example I-241] | 5.00 to 6.00 | 5.00 to 6.00 | +++ (≥350) | > 200 |  |  |  |  |  | 
12 | COc1ccc(C(F)(F)F)cc1CN[C@H]1[C@H](C(C)(C)C)[C@@H](C(=O)O)N(C(=O)C2CCCC(F)(F)C2)[C@H]1c1cccnc1OC (relative stereo) [Example I-256] |  |  |  |  | 5.00 to 6.00 | > 6.00 | +++ (≥350) | > 200 |  | 
13 | COc1cc(C(F)(F)F)ccc1CN[C@H]1[C@H](C(C)(C)C)[C@@H](C(=O)O)N(C(=O)C2CCCC(F)(F)C2)[C@H]1c1cccnc1OC (relative stereo) [Example I-257] |  |  |  |  | 5.00 to 6.00 | > 6.00 | +++ (≥350) | 100 to 200 |  | 
14 | COc1ncc(C2CCC2)cc1CN[C@H]1[C@H](C(C)(C)C)[C@@H](C(=O)O)N(C(=O)[C@@H]2CCC[C@H](C(F)(F)F)C2)[C@H]1c1ccccc1 (relative stereo) [Example I-259] |  |  |  |  | 5.00 to 6.00 | 5.00 to 6.00 | +++ (≥350) | 100 to 200 |  | 
15 | COc1ncc(C2CCC2)cc1CN[C@H]1[C@H](C(C)(C)C)[C@@H](C(=O)O)N(C(=O)[C@H]2CCC[C@@H](C(F)(F)F)C2)[C@H]1c1ccccc1 (relative stereo) [Example I-260] |  |  |  |  | 5.00 to 6.00 | 5.00 to 6.00 | ++ (≥150 and <350) | < 100 |  | 
16 | COc1ncc(C(F)(F)F)cc1CN[C@H]1[C@H](C(C)(C)C)[C@@H](C(=O)O)N(C(=O)[C@H]2C[C@@H]3CC[C@H]2O3)[C@H]1c1ccccc1C(C)C (relative stereo) [Example I-270] |  |  |  |  | > 6.00 | > 6.00 | +++ (≥350) | > 200 |  | 
17 | COc1cc(Cl)ccc1CN[C@H]1[C@H](C(C)(C)C)[C@@H](C(=O)O)N(C(=O)[C@H](OC)c2ccccc2)[C@H]1c1ccccc1 (relative stereo) [II-54] |  |  |  |  | 5.00 to 6.00 | 5.00 to 6.00 | +++ (≥350) | > 200 |  | 
18 | COc1cc(C(F)(F)F)ccc1CN[C@H]1[C@H](C(C)(C)C)[C@@H](C(=O)O)N(C(=O)C2CCCCO2)[C@H]1c1cccnc1OC (relative stereo) [II-98] |  |  |  |  | 5.00 to 6.00 | 5.00 to 6.00 | +++ (≥350) | 100 to 200 |  | 
19 | COc1ccc(C(C)(C)C)cc1CN[C@H]1[C@H](C(C)(C)C)[C@@H](C(=O)O)N(C(=O)[C@@H]2OCC[C@@H]2C)[C@H]1c1ccccc1 (relative stereo) [II-268] |  |  |  |  | 5.00 to 6.00 | 5.00 to 6.00 | +++ (≥350) | > 200 |  | 
20 | COc1ccc(C(C)(C)C)cc1CN[C@H]1[C@H](C(C)(C)C)[C@@H](C(=O)O)N(C(=O)[C@H]2OCC[C@H]2C)[C@H]1c1ccccc1 (relative stereo) [II-269] |  |  |  |  | 5.00 to 6.00 | 5.00 to 6.00 | +++ (≥350) | > 200 |  | 
21 | COc1ccc(C(F)(F)F)cc1CN[C@H]1[C@H](C(C)(C)C)[C@@H](C(=O)O)N(C(=O)[C@@H]2OCC[C@@H]2C)[C@H]1c1ccccc1 (relative stereo) [II-274] |  |  |  |  | 5.00 to 6.00 | 5.00 to 6.00 | +++ (≥350) | > 200 |  | 
22 | COc1ccc(C(C)(C)C)cc1CN[C@H]1[C@H](C(C)(C)C)[C@@H](C(=O)O)N(C(=O)C(OC)C(C)(C)C)[C@H]1c1ccccc1 (relative stereo) [II-297] |  |  |  |  | 5.00 to 6.00 | 5.00 to 6.00 | +++ (≥350) | < 100 |  | 
23 | COc1ccc(C(C)(C)C)cc1CN[C@H]1[C@H](C(C)(C)C)[C@@H](C(=O)O)N(C(=O)[C@@H]2C[C@H]2c2ccccc2)[C@H]1c1ccccc1 (relative stereo) [II-339] | 5.00 to 6.00 | > 6.00 |  |  |  |  |  |  | > 200 | +++ (≥350)
24 | COc1ncc(C(F)(F)F)cc1CN[C@H]1[C@H](C(C)(C)C)[C@@H](C(=O)O)N(C(=O)[C@H]2CC[C@@H](c3ccccc3)O2)[C@H]1c1ccccc1 (relative stereo) [II-426] | 5.00 to 6.00 | > 6.00 |  |  |  |  |  |  | < 100 | +++ (≥350)
